Reference: ChEMBL document CHEMBL1158907, “2,3,4-Tribromopyrrole from the Marine Polychaete Polyphysia crassa” (J Nat Prod, 1990)

Assays:
[1] = system: Vibrio; assay: Antimicrobial activity against Vibrio at 50 ug/disk after 48 hrs; assay type: functional; conditions: read-out: IZ
[2] = system: Alteromonas; assay: Antimicrobial activity against Alteromonas at 50 ug/disk after 48 hrs; assay type: functional; conditions: read-out: IZ
[3] = system: Corynebacterium; assay: Antimicrobial activity against Corynebacterium at 50 ug/disk after 48 hrs; assay type: functional; conditions: read-out: IZ
[4] = system: Bacillus; assay: Antimicrobial activity against Bacillus at 50 ug/disk after 48 hrs; assay type: functional; conditions: read-out: IZ
[5] = system: Flavobacterium; assay: Antimicrobial activity against Flavobacterium at 50 ug/disk after 48 hrs; assay type: functional; conditions: read-out: IZ
[6] = system: Corynebacterium; assay: Antimicrobial activity against Corynebacterium at 10 ug/disk after 48 hrs; assay type: functional; conditions: read-out: IZ
[7] = system: Bacillus; assay: Antimicrobial activity against Bacillus at 10 ug/disk after 48 hrs; assay type: functional; conditions: read-out: IZ
[8] = system: Flavobacterium; assay: Antimicrobial activity against Flavobacterium at 10 ug/disk after 48 hrs; assay type: functional; conditions: read-out: IZ
[9] = system: Carassius auratus; assay: Toxicity against goldfish at 500 ug; assay type: organism-based; conditions: in vivo

Brc1c[nH]c(Br)c1Br
zone of inhibition at 50 µg/disc [1]: > 5 mm | zone of inhibition at 50 µg/disc [2]: > 5 mm | zone of inhibition at 50 µg/disc [3]: > 5 mm | zone of inhibition at 50 µg/disc [4]: > 5 mm | zone of inhibition at 50 µg/disc [5]: > 5 mm | zone of inhibition at 10 µg/disc [6]: 2 mm | zone of inhibition at 10 µg/disc [7]: 2 mm | zone of inhibition at 10 µg/disc [8]: 2 mm | Activity [9]: Non-toxic
